pIC50: −log10 of the molar value. Read-outs that look alike come from different tables or passages of the source.
Legend:
[1] = Determination of hepatic intrinsic clearance in liver microsomes; format: in vitro ADME; details: human liver microsomes, value in text
Procedure: To 500 μl of 200 mM Na^+K^+ phoshapte buffer (pH 7.4), 100 μl of 1 mM EDTA solution was added followed by 100 μl of 2 mg protein/ml human liver microsomes. A 10 μl aliquot of test compound (20 mM stock in 50% acetonitrile) was diluted further with 40 μl of H2O (total assay volume 750 μl. Assay mixture is incubated for 5 minutes at 37° C. The assay was initiated by addition of 250 μl of 4 mM NADPH solution. Incubation was continued at 37° C. Separate reaction mixtures were prepared for 0, 5, 10, 20, and 30 min durations. Individual reactions were halted by addition of 150 μl of 100% acetonitrile. Internal standard (10 μl of 100 ng/ml diazepam solution) was added. Concentration of the test compound in each separate reaction was measured using LC/MS/MS and a standard curve for the test compound according to standard procedures.
The hepatic intrinsic clearance in liver microsome was determined by the following procedure described by Davies and Morris (Davies, B. and Morris, T. (19930) Physiological parameters in laboratory animals and humans. Pharm Res. 10:1093-1095) detailing the relationship of in vitro clearance to physiological parameters in animals and human subjects. […]
where T is time (in minutes), from the relationship of relative amount vs. time. Alternatively, k1 was determined from a transform of the equation, where […]

[2] = system: Aβ production; assay: Cellular Aβ IC50 determination (memapsin 2 activity in a cellular assay of Aβ production); format: cell-based, Chinese hamster; details: Cricetulus griseus, read-out: M2 IC50
Procedure: The potency of compounds against memapsin 2 activity was determined in a cellular assay of Aβ production. […] Chinese hamster ovary cells that over-express human APP695 with the London and Swedish mutations were seeded in multi-well plates at 10% confluency. Compounds are dissolved in DMSO to concentrations near 1 mM, and diluted into culture media to a final concentration near 4 μM (final 0.4% DMSO). Compounds were diluted serially and applied to cells in multi-well plates 48 h after seeding. Incubation was continued in 5% CO2 at 37° C. for 24 h. Aliquots were removed and assayed for […] content using a sandwich ELISA (BioSource International). Amount of Aβ40 over the range of concentration of compounds, relative to control incubations, were fit to a 4-parameter IC50 model.

[3] = Chinese hamster ovary cells over-expressing human APP695 with London and Swedish mutations, 24 h, Aβ40 sandwich ELISA

| SMILES | hepatic intrinsic clearance in liver microsomes (HLM CL) ([1]; listed as N-(1R,2S)-1-((2R,4R)-4-(benzyloxy)pyrrolidin-2-yl)-1-hydroxy-3-phenylpropan-2-y) | hepatic intrinsic clearance in liver microsomes (HLM CL) ([1]; listed as N-((1R,2S)-1-(2R,4R)-4-(benzyloxy)pyrrolidin-2-yl)-1-hydroxy-3-phenylpropan-2-yl) | pIC50 ([2]; CHO cells over-expressing human APP695, Aβ40 ELISA) | pIC50 [2, 3] |
| --- | --- | --- | --- | --- |
| Cc1coc([C@H]2CCCN2C(=O)c2cccc(C(=O)N[C@@H](Cc3ccccc3)[C@H](O)[C@H]3C[C@@H](OCc4ccccc4)CN3)c2)n1 [1-18, N-((1R,2S)-1-((2R,4R)-4-(benzyloxy)pyrrolidin-2-yl)-1-hydroxy-3-phenylpropan-2-yl)-3-((R)-2-(4-methyloxazol-2-yl)pyrrolidine-1-carbonyl)benzamide] | approximately 337 mL/min/kg | 337 mL/min/kg | 6.54 | > 6.30 |
| C=C(C)c1cccc(CNC[C@@H](O)[C@H](Cc2ccccc2)NC(=O)c2cccc(C(=O)N3CCC[C@@H]3c3nc(C)co3)c2)c1 [2-6, N-((2S,3R)-3-hydroxy-1-phenyl-4-(3-(prop-1-en-2-yl)benzylamino)butan-2-yl)-3-((R)-2-(4-methyloxazol-2-yl)pyrrolidine-1-carbonyl)benzamide, reference compound] |  |  |  | > 6.30 |
| Cc1cc(C(=O)N[C@@H](Cc2ccccc2)[C@H](O)CNCc2cncc(C(C)C)c2)cc(C(=O)N2CCC[C@@H]2c2nc(C)cs2)c1 [2-8, N-((2S,3R)-3-hydroxy-4-((5-isopropylpyridin-3-yl)methylamino)-1-phenylbutan-2-yl)-3-methyl-5-((R)-2-(4-methylthiazol-2-yl)pyrrolidine-1-carbonyl)benzamide, reference compound] |  |  |  | > 6.30 |
| Cc1csc(CN(C(=O)c2cccc(C(=O)N[C@@H](Cc3ccccc3)[C@H](O)CNCc3cccc(C(F)(F)F)c3)c2)C2CC2)n1 [2-9, N1-cyclopropyl-N3-((2S,3R)-3-hydroxy-1-phenyl-4-(3-(trifluoromethyl)benzylamino)butan-2-yl)-N1-((4-methylthiazol-2-yl)methyl)isophthalamide, reference compound] |  |  |  | > 6.30 |

Continued, values first:

| hepatic intrinsic clearance in liver microsomes (HLM CL) ([1]; listed as N-(1R,2S)-1-((2R,4R)-4-(benzyloxy)pyrrolidin-2-yl)-1-hydroxy-3-phenylpropan-2-y) | hepatic intrinsic clearance in liver microsomes (HLM CL) ([1]; listed as N-((1R,2S)-1-(2R,4R)-4-(benzyloxy)pyrrolidin-2-yl)-1-hydroxy-3-phenylpropan-2-yl) | pIC50 ([2]; CHO cells over-expressing human APP695, Aβ40 ELISA) | pIC50 [2, 3] | SMILES |
| --- | --- | --- | --- | --- |
|  |  |  | > 6.30 | Cc1coc([C@H]2CCCN2C(=O)c2cc(CF)cc(C(=O)N[C@@H](Cc3ccccc3)[C@H](O)CNCc3cccc(C(C)(C)C)c3)c2)n1 [2-7, N-((2S,3R)-4-(3-tert-butylbenzylamino)-3-hydroxy-1-phenylbutan-2-yl)-3-(fluoromethyl)-5-((R)-2-(4-methyloxazol-2-yl)pyrrolidine-1-carbonyl)benzamide, reference compound] |
|  |  |  | > 6.30 | Cc1csc([C@H]2CCCN2C(=O)c2cccc(C(=O)N[C@@H](Cc3ccccc3)[C@H](O)CNCc3cccc(C(C)(C)C)c3)c2)n1 [2-10, N-((2S,3R)-4-(3-tert-butylbenzylamino)-3-hydroxy-1-phenylbutan-2-yl)-3-((R)-2-(4-methylthiazol-2-yl)pyrrolidine-1-carbonyl)benzamide, reference compound] |

— patent publication US20130102593A1, “PYRROLIDINE COMPOUNDS WHICH INHIBIT BETA-SECRETASE ACTIVITY AND METHODS OF USE THEREOF” (priority 2008, published 2013)
